Tests used:
E.G7-OVA target cells = assay: Cytotoxic T lymphocyte (CTL) 51Cr cytotoxicity assay with splenic mononuclear cells of immunized mice; type: in vivo, C57BL/6 mice; conditions: subcutaneously at week 1, 3 and 5
Procedure: (§1) All experiments were carried out in C57BL/6 mice (female, 8-12 weeks of age). The synergistic adjuvant-effect of the QS-21/QS-7 mixtures was assessed by two parameters: (1) the ability of these mixtures to improve antibody titers to a subunit antigen, ovalbumin, in mice; and (2) the ability of these mixtures to improve an ovalbumin-specific cytotoxic T lymphocyte (killer cell) response in mice.
The experimental techniques were the following. The mice were immunized subcutaneously at week 1, 3, and 5 with 0.2 ml of the indicated formulations in phosphate-buffered saline. Mice were immunized in groups of five. Sera and spleens were harvested at weeks 7 to 9. Sera was assayed for anti-ovalbumin antibody response by enzyme immunoassay. Briefly, a 96 well Immulon plate was coated with 10 µg/ml ovalbumin in phosphate-buffered saline (PBS) overnight at 4°C. These plates were blocked with 10% normal goat serum in PBS (diluent) for one hour at room temperature. Serial 1:10 dilutions of serum were made in diluent and were incubated on the plates for one hour at room temperature or overnight at 4°C. An enzyme conjugate of anti-mouse IgG (or anti-mouse IgG subclass) was diluted in diluent and incubated on the plate. A colorimetric enzyme substrate, tetramethylbenzidine, was used to assay for binding of anti-ovalbumin antibody. Spleens from immunized mice were used to assay for the cytotoxic T lymphocyte (CTL) response. The effector cells for the (CTL) assay were splenic mononuclear cells from the harvested spleens. The antigen-positive target cells for the assay were E.G7-OVA cells, which are an MHC class II antigen-negative EL4 mouse cell line, transfected with the ovalbumin gene. […] EL4 cells were used as an ovalbumin-negative target cell line. Prior to assay, splenic mononuclear cells were stimulated with antigen to induce maturation of precursor CTL in the effector cell population. The antigens used for stimulation were mitomycin C treated E.G7-OVA cells (incubated with spleen cells at a ratio of 20:1 spleen cells: E.G7-OVA cells) or denatured ovalbumin (25 µg/ml). […]

anti-ovalbumin antibody = assay: Anti-ovalbumin antibody response in serum by enzyme immunoassay; type: in vivo, C57BL/6 mice; conditions: 0.625 µg given individually; titer not higher than no adjuvant
Procedure: as §1
The experimental techniques were the following. The mice were immunized subcutaneously at week 1, 3, and 5 with 0.2 ml of the indicated formulations in phosphate-buffered saline. Mice were immunized in groups of five. Sera and spleens were harvested at weeks 7 to 9. Sera was assayed for anti-ovalbumin antibody response by enzyme immunoassay. Briefly, a 96 well Immulon plate was coated with 10 µg/ml ovalbumin in phosphate-buffered saline (PBS) overnight at 4°C. These plates were blocked with 10% normal goat serum in PBS (diluent) for one hour at room temperature. Serial 1:10 dilutions of serum were made in diluent and were incubated on the plates for one hour at room temperature or overnight at 4°C. An enzyme conjugate of anti-mouse IgG (or anti-mouse IgG subclass) was diluted in diluent and incubated on the plate. A colorimetric enzyme substrate, tetramethylbenzidine, was used to assay for binding of anti-ovalbumin antibody. […]

ovalbumin antigen = conditions: doses below 2.5 µg; cited from earlier work
ovalbumin = conditions: at 2.5 µg or lower; cited from earlier work
mice = conditions: mouse, in vivo; cited from earlier work

QS-21
stimulating a CTL response (E.G7-OVA target cells; saponin dose 0.625 µg given alone with ovalbumin): ineffective
stimulating a CTL response (E.G7-OVA target cells; saponin dose 1.25 µg given alone with ovalbumin): ineffective
stimulating a CTL response (E.G7-OVA target cells; saponin dose 20 µg given alone with ovalbumin): highly effective
titer compared with no adjuvant (anti-ovalbumin antibody): suboptimal
adjuvant for raising an antibody response to the ovalbumin antigen (ovalbumin antigen): ineffective
cytotoxic T lymphocyte (CTL) response to ovalbumin (ovalbumin): minimal
toxicity in mice (mice): least toxic
